Results taken from patent publication US20050245399A1, “Pyrazole derivatives as herbicidal compositions containing them” (ISHIHARA SANGYO KAISHA, LTD., priority 2004, published 2005).

What was measured:
Assay type in all cases: in vivo
[1] = system: redroot pigweed (Amaranthus retroflexus L.), AMARE; test: Test Example 2 post-emergence (foliage treatment) herbicidal activity, AMARE
How it was run: (§1)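 Herbicide was applied to foliage of seedlings raised in upland field soil: redroot pigweed at 0.1-1.5 leaves, barnyardgrass at 1.1-2.1, crabgrass at 1.0-2.0, rice at 1.0-2. A predetermined active ingredient amount was carried in 500 L/ha water with 0.1% (v/v) spreader; control (%) was assessed by eye after 20-23 days.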

[2] = system: corn (Zea mays L.), ZEAMX; test: Test Example 2 post-emergence (foliage treatment) herbicidal activity, ZEAMX
How it was run: (§2)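 Foliar spray of formulated compound (500 L/ha dilution water, 0.1% v/v spreader) onto young potted plants at defined leaf stages. Scored 0-100% by visual inspection 20-23 d post-spray.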

[3] = system: japanese bulrush (Scirpus juncoides: SCPJO); test: Test Example 3 water application herbicidal activity (paddy), SCPJO; details: 63 g a.i./ha, water application under submerged condition at 0.5 leaf stage, visually observed 14th day after application; 0 = untreated control, 100 = complete kill
Description: (§3) Paddy field soil was put into a 1/1,000,000 ha pot and seeds of barnyardgrass (Echinochiloa oryzicola: ECHOR) and japanese bulrush (Scirpus juncoides: SCPJO) were sown and slightly covered with soil. Then the pot was left to stand still in a greenhouse in a state where the depth of flooding water was from 0.5 to 1 cm, and one day later, tubers of japanese ribbon wapato (Sagittaria pygmaea: SA GPY) were planted. Thereafter, the depth of flooding water was maintained at a level of from 3 to 4 cm, and when barnyardgrass and japanese bulrush reached a 0.5 leaf stage, an aqueous diluted solution of a wettable powder or emulsifiable concentrate having the compound of the present invention formulated in accordance with a usual formulation method, was uniformly applied under submerged condition by a pipette so that the dose of the active ingredient would be at a predetermined level. On the other hand, paddy filed soil was put into a 1/1,000,000 ha pot and puddled and leveled, and the depth of flooding water was from 3 to 4 cm. One day later, rice (Oryza sativa L.: ORYSA) of 2 leaf stage was transplanted in a depth of 3 cm. On the 4th day after the transplantation, the compound of the present invention was applied in the same manner as described above. On the 14th day after the application of the herbicide, the growth of barnyardgrass, japanese burlush and japanese ribbon wapato was visually observed and on the 21st day after the application of the herbicide, the growth of rice was visually observed, and the herbicidal effects were evaluated by growth controlling degrees (%) ranging from 0 (equivalent to the untreated control) to 100 (complete kill), whereby the results shown in Table 6, were obtained. Compound Nos. in Table 6 correspond to Compound Nos. in Table 1 and 2 given hereinbefore.

[4] = system: wheat (Triticum aestivum L.): TRZAX; test: Test Example 1 pre-emergence herbicidal activity, TRZAX; details: visually observed 20th to 23rd day after application
How it was run: (§4)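 pots, upland field soil; sow; +1 d spray compound (WP or EC, a.i. at set dose, 500 L/ha water), pre-emergence; visual % growth control d20–23 (0 untreated, 100 complete kill).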

[5] = system: prickly sida (Sida spinosa L.): SEDSP; test: Test Example 1 pre-emergence herbicidal activity, SIDSP; details: visually observed 20th to 23rd day after application
How it was run: as §4

[6] = system: barnyardgrass (Echinochiloa oryzicola: ECHOR); test: Test Example 3 water application herbicidal activity (paddy), ECHOR; details: 63 g a.i./ha, water application under submerged condition at 0.5 leaf stage, visually observed 14th day after application; 0 = untreated control, 100 = complete kill
Description: as §3

[7] = system: wheat (Triticum aestivum L.), TRZAX; test: Test Example 2 post-emergence (foliage treatment) herbicidal activity, TRZAX
How it was run: as §2

[8] = system: rice (Oryza sativa L.), ORYSA; test: Test Example 2 post-emergence (foliage treatment) herbicidal activity, ORYSA
How it was run: as §1

[9] = system: japanese ribbon wapato (Sagittaria pygmaea: SA GPY); test: Test Example 3 water application herbicidal activity (paddy), SAGPY; details: 63 g a.i./ha, water application under submerged condition, tubers planted, visually observed 14th day after application; 0 = untreated control, 100 = complete kill
Description: as §3

[10] = system: barnyardgrass (Echinochloa crus-galli L.): ECHCG; test: Test Example 1 pre-emergence herbicidal activity, ECHCG; details: visually observed 20th to 23rd day after application
How it was run: as §4

[11] = system: velvetleaf (Abutilon theophrasti), ABUTH; test: Test Example 2 post-emergence (foliage treatment) herbicidal activity, ABUTH
How it was run: as §2

[12] = system: crabgrass (Digitaria sanguinalis L.), DIGSA; test: Test Example 2 post-emergence (foliage treatment) herbicidal activity, DIGSA
How it was run: as §1

[13] = system: soybean (Glycine max Merr.), GLXMA; test: Test Example 2 post-emergence (foliage treatment) herbicidal activity, GLXMA
How it was run: as §2

[14] = system: rice (Oryza sativa L.: ORYSA); test: Test Example 3 water application herbicidal activity (paddy), transplanted rice ORYSA; details: 63 g a.i./ha, water application 4th day after transplantation of 2 leaf stage rice, visually observed 21st day after application; 0 = untreated control, 100 = complete kill
Description: as §3

[15] = system: crabgrass (Digitaria sanguinalis L.): DIGSA; test: Test Example 1 pre-emergence herbicidal activity, DIGSA; details: visually observed 20th to 23rd day after application
How it was run: as §4

[16] = system: green foxtail (Setaria viridis L.): SETVI; test: Test Example 1 pre-emergence herbicidal activity, SETVI; details: visually observed 20th to 23rd day after application
How it was run: as §4

[17] = system: prickly sida (Sida spinosa L.), SIDSP; test: Test Example 2 post-emergence (foliage treatment) herbicidal activity, SIDSP
How it was run: as §2

[18] = system: redroot pigweed (Amaranthus retroflexus L.): AMARE; test: Test Example 1 pre-emergence herbicidal activity, AMARE; details: visually observed 20th to 23rd day after application
How it was run: as §4

[19] = system: soybean (Glycine max Merr.): GLXMA; test: Test Example 1 pre-emergence herbicidal activity, GLXMA; details: visually observed 20th to 23rd day after application
How it was run: as §4

[20] = system: corn (Zea mays L.): ZEAMX; test: Test Example 1 pre-emergence herbicidal activity, ZEAMX; details: visually observed 20th to 23rd day after application
How it was run: as §4

[21] = system: barnyardgrass (Echinochloa crus-galli L.), ECHCG; test: Test Example 2 post-emergence (foliage treatment) herbicidal activity, ECHCG
How it was run: as §1

[22] = system: velvetleaf (Abutilon theophrasti): ABUTH; test: Test Example 1 pre-emergence herbicidal activity, ABUTH; details: visually observed 20th to 23rd day after application
How it was run: as §4

[23] = system: rice (Oryza sativa L.): ORYSA; test: Test Example 1 pre-emergence herbicidal activity, ORYSA; details: visually observed 20th to 23rd day after application
How it was run: as §4

[24] = system: green foxtail (Setaria viridis L.), SETVI; test: Test Example 2 post-emergence (foliage treatment) herbicidal activity, SETVI
How it was run: as §2

| Compound | growth controlling degree, ZEAMX ([2]; 63 g a.i./ha) [%] | growth controlling degrees (%) SCPJO [3] [%] | Pre-emergence Herbicidal Activity TRZAX (growth controlling degree) ([4]; Rate 63 g a.i./ha) [%] | growth controlling degrees (%) ECHOR [6] [%] | growth controlling degree, TRZAX ([7]; 63 g a.i./ha) [%] | growth controlling degree, ORYSA ([8]; 63 g a.i./ha) [%] | growth controlling degrees (%) SAGPY [9] [%] | Pre-emergence Herbicidal Activity ECHCG (growth controlling degree) ([10]; Rate 63 g a.i./ha) [%] | growth controlling degree, ABUTH ([11]; 63 g a.i./ha) [%] | growth controlling degree, DIGSP ([12]; 63 g a.i./ha) [%] | growth controlling degree, GLXMA ([13]; 63 g a.i./ha) [%] | growth controlling degrees (%) ORYSA [14] [%] | Pre-emergence Herbicidal Activity DIGSP (growth controlling degree) ([15]; Rate 63 g a.i./ha) [%] | Pre-emergence Herbicidal Activity SETVI (growth controlling degree) ([16]; Rate 63 g a.i./ha) [%] | growth controlling degree, SIDSP ([17]; 63 g a.i./ha) [%] | Pre-emergence Herbicidal Activity AMARE (growth controlling degree) ([18]; Rate 63 g a.i./ha) [%] | Pre-emergence Herbicidal Activity GLXMA (growth controlling degree) ([19]; Rate 63 g a.i./ha) [%] | Pre-emergence Herbicidal Activity ZEAMX (growth controlling degree) ([20]; Rate 63 g a.i./ha) [%] | growth controlling degree, ECHCO ([21]; 63 g a.i./ha) [%] | Pre-emergence Herbicidal Activity ABUTH (growth controlling degree) ([22]; Rate 63 g a.i./ha) [%] | further results |
| --- | --- | --- | --- | --- | --- | --- | --- | --- | --- | --- | --- | --- | --- | --- | --- | --- | --- | --- | --- | --- | --- |
| COc1c(Cl)cc(F)c(-c2nn(C)c(OC(F)F)c2Cl)c1NC(=O)c1ccc(C#N)cc1 [Compound 1-32] | 95 | 70 | 10 | 100 | 50 | 90 | 100 | 95 | 100 | 70 | 80 | 50 | 100 | 100 | 100 | 100 | 10 | 10 | 95 | 100 | growth controlling degree, AMARE ([1]; 63 g a.i./ha): 100%; Pre-emergence Herbicidal Activity SIDSP (growth controlling degree) ([5]; Rate 63 g a.i./ha): 100%; Pre-emergence Herbicidal Activity ORYSA (growth controlling degree) ([23]; Rate 63 g a.i./ha): 60% |
| CCOC(=O)Nc1c(OC)c(Cl)cc(F)c1-c1nn(C)c(OC(F)F)c1Cl [Compound 1-273] | 10 | 0 | 0 | 70 | 20 | 10 | 0 | 0 | 98 | 20 | 60 | 30 | 30 | 20 | 90 | 80 | 0 | 0 | 30 | 10 | growth controlling degree, AMARE ([1]; 63 g a.i./ha): 100%; Pre-emergence Herbicidal Activity ORYSA (growth controlling degree) ([23]; Rate 63 g a.i./ha): 10% |
| COCC(=O)Nc1c(OC)c(Cl)cc(F)c1-c1nn(C)c(OC(F)F)c1Cl [Compound 1-16] | 70 | 98 | 10 | 100 | 50 | 80 | 100 | 100 | 100 | 80 | 95 | 70 | 100 | 100 | 100 | 100 | 10 | 40 | 80 | 100 | Pre-emergence Herbicidal Activity SIDSP (growth controlling degree) ([5]; Rate 63 g a.i./ha): 100%; growth controlling degree, SETVI ([24]; 63 g a.i./ha): 100%; Pre-emergence Herbicidal Activity ORYSA (growth controlling degree) ([23]; Rate 63 g a.i./ha): 40% |
| COc1c(Cl)cc(F)c(-c2nn(C)c(OC(F)F)c2Cl)c1N(C(=O)OCCCl)C(=O)OCCCl [Compound 1-52] | 10 | 50 | – | 100 | 10 | 40 | 0 | – | 80 | 30 | 30 | 20 | – | – | 90 | – | – | – | 50 | – | Pre-emergence Herbicidal Activity TRZAX (growth controlling degree) ([4]; Rate 125 g a.i./ha): 0%; Pre-emergence Herbicidal Activity SIDSP (growth controlling degree) ([5]; Rate 125 g a.i./ha): 0%; growth controlling degree, SETVI ([24]; 63 g a.i./ha): 30%; Pre-emergence Herbicidal Activity ECHCG (growth controlling degree) ([10]; Rate 125 g a.i./ha): 0%; Pre-emergence Herbicidal Activity DIGSP (growth controlling degree) ([15]; Rate 125 g a.i./ha): 30%; Pre-emergence Herbicidal Activity SETVI (growth controlling degree) ([16]; Rate 125 g a.i./ha): 50%; Pre-emergence Herbicidal Activity AMARE (growth controlling degree) ([18]; Rate 125 g a.i./ha): 100%; Pre-emergence Herbicidal Activity GLXMA (growth controlling degree) ([19]; Rate 125 g a.i./ha): 0%; Pre-emergence Herbicidal Activity ZEAMX (growth controlling degree) ([20]; Rate 125 g a.i./ha): 0%; Pre-emergence Herbicidal Activity ABUTH (growth controlling degree) ([22]; Rate 125 g a.i./ha): 0%; Pre-emergence Herbicidal Activity ORYSA (growth controlling degree) ([23]; Rate 125 g a.i./ha): 0% |
| COc1c(Cl)cc(F)c(-c2nn(C)c(OC(F)F)c2Cl)c1[N+](=O)[O-] [Compound 2-21, 4-chloro-3-(4-chloro-6-fluoro-3-methoxy-2-nitrophenyl)-5-(difluoromethoxy)-1-methyl-1H-pyrazole] | – | 98 | – | 100 | – | – | 100 | – | – | – | – | 40 | – | – | – | – | – | – | – | – | growth controlling degree, AMARE ([1]; 31 g a.i./ha): 100%; growth controlling degree, ZEAMX ([2]; 31 g a.i./ha): 80%; growth controlling degree, TRZAX ([7]; 31 g a.i./ha): 40%; growth controlling degree, ORYSA ([8]; 31 g a.i./ha): 90%; growth controlling degree, SETVI ([24]; 31 g a.i./ha): 100%; growth controlling degree, ABUTH ([11]; 31 g a.i./ha): 100%; growth controlling degree, DIGSP ([12]; 31 g a.i./ha): 95%; growth controlling degree, GLXMA ([13]; 31 g a.i./ha): 90%; growth controlling degree, SIDSP ([17]; 31 g a.i./ha): 100%; growth controlling degree, ECHCO ([21]; 31 g a.i./ha): 100% |
